Test results from patent publication US8791267B2, “Biaryl PDE4 inhibitors for treating inflammatory, cardiovascular and CNS disorders” (Decode Genetics EHF, priority 2007, dated 2014).
Structures can show the parent of a compound that is named as a salt.

How the values were obtained:
PDE4B = PDE4B (Homo sapiens, UniProt Q07343); test: In-vitro assay for PDE4 enzymes, real-time enzyme-coupled spectrophotometric assay, PDE4B Activity (Table 10); type: biochemical; settings: human PDE4B (hPDE4B), enzyme-coupled spectrophotometric assay; read-out: PDE4B Activity, hPDE4B
PDE4 = PDE4 (Homo sapiens, UniProt Q08499); test: In-vitro assay for PDE4 enzymes, real-time enzyme-coupled spectrophotometric assay (Table 9); type: biochemical; settings: human PDE4D; activity class, Table 9; read-out: hPDE4D
Chain of PDE4 (Q08499 whole entry): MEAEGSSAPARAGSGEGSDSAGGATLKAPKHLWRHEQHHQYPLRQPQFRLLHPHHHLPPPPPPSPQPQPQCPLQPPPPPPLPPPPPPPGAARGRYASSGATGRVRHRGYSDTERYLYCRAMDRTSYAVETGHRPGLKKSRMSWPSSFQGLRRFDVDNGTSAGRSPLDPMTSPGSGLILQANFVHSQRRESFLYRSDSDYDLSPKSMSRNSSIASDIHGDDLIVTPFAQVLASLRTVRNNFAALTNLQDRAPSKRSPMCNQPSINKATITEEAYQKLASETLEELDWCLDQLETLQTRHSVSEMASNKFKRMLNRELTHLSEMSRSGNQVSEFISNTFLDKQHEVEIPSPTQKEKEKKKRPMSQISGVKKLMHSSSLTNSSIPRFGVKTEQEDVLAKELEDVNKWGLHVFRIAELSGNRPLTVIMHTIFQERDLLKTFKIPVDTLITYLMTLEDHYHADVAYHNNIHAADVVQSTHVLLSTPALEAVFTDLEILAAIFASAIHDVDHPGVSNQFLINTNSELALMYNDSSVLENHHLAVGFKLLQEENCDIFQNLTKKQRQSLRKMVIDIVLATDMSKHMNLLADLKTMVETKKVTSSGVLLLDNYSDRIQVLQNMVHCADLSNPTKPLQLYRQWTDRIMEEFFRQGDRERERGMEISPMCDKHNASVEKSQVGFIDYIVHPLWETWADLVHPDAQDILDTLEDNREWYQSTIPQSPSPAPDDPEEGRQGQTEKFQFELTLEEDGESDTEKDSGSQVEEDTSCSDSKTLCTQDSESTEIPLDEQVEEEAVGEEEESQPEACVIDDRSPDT

Chain of PDE4B (Q07343 whole entry): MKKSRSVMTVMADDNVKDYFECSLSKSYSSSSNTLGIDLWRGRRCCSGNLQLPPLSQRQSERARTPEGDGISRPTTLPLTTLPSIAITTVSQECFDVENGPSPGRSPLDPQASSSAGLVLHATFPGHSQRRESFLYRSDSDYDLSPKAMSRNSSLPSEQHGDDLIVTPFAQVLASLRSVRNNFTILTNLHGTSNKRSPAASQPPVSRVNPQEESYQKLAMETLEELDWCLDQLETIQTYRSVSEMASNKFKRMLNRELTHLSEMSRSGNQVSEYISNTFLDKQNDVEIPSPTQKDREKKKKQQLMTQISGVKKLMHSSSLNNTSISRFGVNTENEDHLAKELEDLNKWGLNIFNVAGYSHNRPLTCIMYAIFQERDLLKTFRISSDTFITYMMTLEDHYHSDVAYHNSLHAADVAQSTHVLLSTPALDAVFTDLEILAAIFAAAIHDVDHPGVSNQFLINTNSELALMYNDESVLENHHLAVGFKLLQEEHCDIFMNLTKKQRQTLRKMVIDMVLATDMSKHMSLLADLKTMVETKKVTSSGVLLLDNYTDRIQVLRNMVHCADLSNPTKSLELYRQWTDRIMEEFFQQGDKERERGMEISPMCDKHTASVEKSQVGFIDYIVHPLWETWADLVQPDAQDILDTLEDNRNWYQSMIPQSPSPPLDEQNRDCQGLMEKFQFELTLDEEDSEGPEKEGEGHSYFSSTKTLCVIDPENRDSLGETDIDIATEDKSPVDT

| IC50 (PDE4B) [µM] | IC50 (PDE4) [µM] | SMILES |
| --- | --- | --- |
| 5 to 20 | < 5 | O=c1ccc(Cc2ccc(O)c(-c3cccc([N+](=O)[O-])c3)c2)n[nH]1 [P-488, 6-(6-Hydroxy-3′-nitro-biphenyl-3-ylmethyl)-2H-pyridazin-3-one] |
| < 5 | < 5 | COc1ccc(Cc2cnc(N)nc2)c(F)c1-c1cccc(C#N)c1 [P-395, 3′-(2-Amino-pyrimidin-5-ylmethyl)-2′-fluoro-6′-methoxy-biphenyl-3-carbonitrile] |
| < 5 | 5 to 20 | COc1ccc(Cc2ccc(NS(C)(=O)=O)cc2)cc1-c1cccc(Cl)c1 [P-246, N-[4-(3′-Chloro-6-methoxy-biphenyl-3-ylmethyl)-phenyl]-methanesulfonamide] |
| < 5 | < 5 | COc1ccc(Cc2cnc(N)nc2)c(F)c1-c1cccc(C(C)=O)c1 [P-281, 1-[3′-(2-Amino-pyrimidin-5-ylmethyl)-2′-fluoro-6′-methoxy-biphenyl-3-yl]-ethanone hydrochloride] |
| < 5 | < 5 | COc1ccc(Cc2ccc(NC(=O)OC(C)(C)C)cc2)cc1-c1cccc([N+](=O)[O-])c1 [P-112] |
| < 5 | < 5 | COc1ccc(Cc2cccc(CO)c2)cc1-c1cccc([N+](=O)[O-])c1 [P-103, [3-(6-Methoxy-3′-nitro-biphenyl-3-ylmethyl)-phenyl]-methanol] |
| < 5 | < 5 | COc1ccc(Cc2ccc(NC(N)=O)cc2)cc1-c1cccc(Cl)c1 [P-378, [4-(3′-chloro-6-methoxy-biphenyl-3-ylmethyl)-phenyl]-urea] |
| < 5 | < 5 | COc1ccc(Cc2ccno2)c(O)c1-c1cccc([N+](=O)[O-])c1 [P-130, 3-isoxazol-5-ylmethyl-6-methoxy-3′-nitro-biphenyl-2-ol] |
| < 5 | < 5 | NC(=O)Nc1ccc(Cc2ccc(OC3COC3)c(-c3cccc(Cl)c3)c2)cc1 [P-555, {4-[3′-Chloro-6-(oxetan-3-yloxy)-biphenyl-3-ylmethyl]-phenyl}-urea] |
| 5 to 20 | 5 to 20 | COc1ccc(Cn2cc(NC(N)=O)ccc2=O)cc1-c1cccc([N+](=O)[O-])c1 [P-208, [1-(6-Methoxy-3′-nitro-biphenyl-3-ylmethyl)-6-oxo-1,6-dihydro-pyridin-3-yl]-urea] |
| < 5 | < 5 | COc1ccc(Cc2ccc(F)cc2)c(O)c1-c1cccc([N+](=O)[O-])c1 [P-099, 3-(4-Fluoro-benzyl)-6-methoxy-3′-nitro-biphenyl-2-ol] |
| 5 to 20 | 5 to 20 | COc1ccc(Cc2cccc(CN)c2)cc1-c1cccc([N+](=O)[O-])c1 [P-161, 3-(6-Methoxy-3′-nitro-biphenyl-3-ylmethyl)-benzylamine] |
| < 5 | < 5 | COc1ccc(COc2ccc(N)cc2)c(F)c1-c1cccc(Br)c1 [P-199] |
| < 5 | < 5 | COc1ccc(Cn2ccnc2)cc1-c1ccc2c(c1)OCO2 [P-037, 1-(3-Benzo[1,3]dioxol-5-yl-4-methoxy-benzyl)-1H-imidazole] |
| < 5 | < 5 | O=[N+]([O-])c1cccc(-c2c(O)ccc(Cc3ccc(F)cc3)c2F)c1 [P-451] |
| 5 to 20 | 5 to 20 | COc1ccc(COc2ccccn2)cc1-c1cccc([N+](=O)[O-])c1 [P-224, 2-(6-Methoxy-3′-nitro-biphenyl-3-ylmethoxy)-pyridine] |
| < 5 | < 5 | COc1ccc(Cc2c(C)noc2C)c(O)c1-c1cccc([N+](=O)[O-])c1 [P-174] |
| < 5 | < 5 | COc1ccc(Cc2ccc(CNC(N)=O)nc2)c(F)c1-c1cccc(Cl)c1 [P-368, [5-(3′-Chloro-2-fluoro-6-methoxy-biphenyl-3-ylmethyl)-pyridin-2-ylmethyl]-urea] |
| < 5 | < 5 | COC(=O)c1cccc(-c2cc(Cc3ccc(F)cc3)ccc2OC)c1 [P-002] |
| 21 to 40 | < 5 | COc1ccc(CN2CC[C@H](O)C2)cc1-c1cccc([N+](=O)[O-])c1 [P-070, (S)-1-(6-Methoxy-3′-nitro-biphenyl-3-ylmethyl)-pyrrolidin-3-ol] |
| < 5 | < 5 | Oc1ccc(Cc2ccc(F)cc2)c(F)c1-c1cccc(Br)c1 [P-496] |
| 5 to 20 | 5 to 20 | COc1ccc([C@](C)(O)c2ccc(NC(C)=O)cc2)c(F)c1-c1cccc(Cl)c1 (single isomer, unassigned) [P-560] |
| < 5 | < 5 | COc1ccc(Cc2ccc(NC(N)=O)cc2)c(F)c1-c1cccc(C#N)c1 [P-413] |

| IC50 (PDE4B) [µM] | IC50 (PDE4) [µM] | SMILES |
| --- | --- | --- |
| < 5 | < 5 | COc1ccc(Cc2ccc(OCCN3CCCCC3)cc2)cc1-c1cccc([N+](=O)[O-])c1 [P-166] |
| < 5 | < 5 | COc1ccc(Cc2ccc(N)nc2)c(F)c1-c1cccc(Cl)c1 [P-252, 5-(3′-Chloro-2-fluoro-6-methoxy-biphenyl-3-ylmethyl)-pyridin-2-ylamine] |
| < 5 | < 5 | COc1ccc(Cn2ccnc2)cc1-c1ccc2nonc2c1 [P-006, 5-(5-Imidazol-1-ylmethyl-2-methoxy-phenyl)-benzo[1,2,5]oxadiazole] |
| < 5 | < 5 | COc1ccc(Cc2ccncc2)c(O)c1-c1cccc([N+](=O)[O-])c1 [P-017, 6-methoxy-3′-nitro-3-pyridin-4-ylmethyl-biphenyl-2-ol] |
| 21 to 40 | < 5 | COc1ccc(Oc2ccc(=O)[nH]n2)cc1-c1cccc([N+](=O)[O-])c1 [P-015, 6-(6-Methoxy-3′-nitro-biphenyl-3-yloxy)-2H-pyridazin-3-one] |
| < 5 | < 5 | COc1ccc(CN2C[C@@H](O)CC2=O)cc1-c1cccc([N+](=O)[O-])c1 [P-248, (S)-4-Hydroxy-1-(6-methoxy-3′-nitro-biphenyl-3-ylmethyl)-pyrrolidin-2-one] |
| < 5 | < 5 | COc1ccc(COc2ccnc(Cl)c2)c(F)c1-c1cccc(Cl)c1 [P-604] |
| < 5 | < 5 | O=[N+]([O-])c1cccc(-c2cc(Cc3ccc(F)cc3)ccc2O)c1 [P-494, 5-(4-Fluoro-benzyl)-3′-nitro-biphenyl-2-ol] |
| 5 to 20 | < 5 | COc1ccc(C(C)(O)c2ccc(NC(N)=O)cc2)c(F)c1-c1cccc(Cl)c1 (centres unmarked) [P-441, {4-[1-(3′-chloro-2-fluoro-6-methoxy-biphenyl-3-yl)-1-hydroxy-ethyl]-phenyl}-urea] |
| 5 to 20 | < 5 | COc1ccc(Cn2ccnc2-c2cccnc2)c(F)c1-c1cccc(Cl)c1 [P-549, 3-[1-(3′-Chloro-2-fluoro-6-methoxy-biphenyl-3-ylmethyl)-1H-imidazol-2-yl]-pyridine hydrochloride salt] |
| 21 to 40 | 5 to 20 | COc1ccc(CN2C(=O)CCC2=O)cc1-c1ccc2c(c1)OCO2 [P-053, 1-(3-Benzo[1,3]dioxol-5-yl-4-methoxy-benzyl)-pyrrolidine-2,5-dione] |
| < 5 | < 5 | COc1ccc(Cc2ccc(CN3CCNC3=O)nc2)c(F)c1-c1cccc(Cl)c1 [P-374, 1-[5-(3′-Chloro-2-fluoro-6-methoxy-biphenyl-3-ylmethyl)-pyridin-2-ylmethyl]-imidazolidin-2-one] |
| < 5 | < 5 | COc1ccc(Cc2ccc(N3CCC3C(N)=O)nc2)c(F)c1-c1cccc(Cl)c1 (centres unmarked) [P-571, 1-[5-(3′-chloro-2-fluoro-6-methoxy-biphenyl-3-ylmethyl)-pyridin-2-yl]-azetidine-2-carboxylic acid amide] |
| < 5 | < 5 | COc1ccc(Cc2ccc(C=O)cc2)c(O)c1-c1cccc([N+](=O)[O-])c1 [P-180, 4-(2-Hydroxy-6-methoxy-3′-nitro-biphenyl-3-ylmethyl)-benzaldehyde] |
| < 5 | < 5 | COc1ccc(Cc2c(C)nn(CC(F)(F)F)c2C)cc1-c1cccc([N+](=O)[O-])c1 [P-090, 4-(6-Methoxy-3′-nitro-biphenyl-3-ylmethyl)-3,5-dimethyl-1-(2,2,2-trifluoro-ethyl)-1H-pyrazole] |
| 5 to 20 | < 5 | CCNC(=O)Nc1nc(Cc2ccc(OC)c(-c3cccc(Cl)c3)c2F)cs1 [P-346, 1-[4-(3′-Chloro-2-fluoro-6-methoxy-biphenyl-3-ylmethyl)-thiazol-2-yl]-3-ethyl-urea] |
| < 5 | 5 to 20 | COc1ccc(Oc2ccc(NS(C)(=O)=O)cc2)c(F)c1-c1cccc(Cl)c1 [P-254, N-[4-(3′-Chloro-2-fluoro-6-methoxy-biphenyl-3-yloxy)-phenyl]-methanesulfonamide] |
| < 5 | < 5 | COc1ccc(Cn2cncn2)cc1-c1cccc(SC)c1 [P-085, 1-(6-Methoxy-3′-methylsulfanyl-biphenyl-3-ylmethyl)-1H-[1,2,4]triazole] |
| < 5 | < 5 | COc1ccc(Cc2ccc(OCCN3CCOCC3)cc2)cc1-c1cccc([N+](=O)[O-])c1 [P-171] |
| 5 to 20 | 20 to 40 | COc1ccc(CN2CCCC2=O)cc1-c1ccc2c(c1)OCO2 [P-045, 1-(3-Benzo[1,3]dioxol-5-yl-4-methoxy-benzyl)-pyrrolidin-2-one] |
| < 5 | < 5 | COc1ccc(Cn2ccnc2-c2cccs2)c(F)c1-c1cccc(Cl)c1 [P-559, 1-(3′-Chloro-2-fluoro-6-methoxy-biphenyl-3-ylmethyl)-2-thiophen-2-yl-1H-imidazole hydrochloride salt] |
| < 5 | < 5 | CCNC(=O)Nc1ccc(Cc2ccc(OC)c(-c3cccc(Cl)c3)c2F)cn1 [P-356] |
| < 5 | < 5 | COc1ccc(Cc2ccc(NS(C)(=O)=O)nc2)c(F)c1-c1cccc(Cl)c1 [P-258, N-[5-(3′-chloro-2-fluoro-6-methoxy-biphenyl-3-ylmethyl)-pyridin-2-yl]-methanesulfonamide] |
